Source: paper PMC11571108, “Targeting PfCLK3 with Covalent Inhibitors: A Novel Strategy for Malaria Treatment” (Journal of Medicinal Chemistry, 2024)
“And” between values parts separate entries of the source, which are not always exact repeats. Equal entries are not always repeated.

Key:
full-length PfCLK3 = details: PfCLK3 5 μg; triplicate wells
Description: To a 384-well thermal shift plate, 5 μL protein thermal shift buffer (Thermo Fisher Scientific), 5 μg full length PfCLK3 (4.17 μL, 1.2 mg/mL), 8.13 μL thermal shift buffer (Thermo Fisher Scientific), 0.2 μL 10 mM compound or vehicle (DMSO), and 2.5 μL protein thermal shift dye (Thermo Fisher Scientific) were added in triplicate. […] 5 Qpcr (Thermo Fisher Scientific). Fluorescence was recorded as proteins unfolded. The Boltzmann distribution was calculated and Tm obtained using Protein Thermal Shift Software v1.4 (Thermo Fisher Scientific).

Microsomal stability = type: in vitro ADME; details: human, liver microsomes, 0.5 mg/mL microsomes, 37 °C
Description: Peak areas were determined from extracted ion chromatograms.

EGFR(h) = EGFR(h) (Homo sapiens, UniProt P00533); experiment: biochemical
Description: (§1) Compounds were evaluated using Eurofins Discovery’s KinaseProfiler Diversity Panel of 58 representative kinases. KinaseProfiler is a radiometric assay using [γ-^33P]-ATP to measure the phosphorylation of individual kinase substrates. A representative protocol for Abl is given below. Further details can be found by visiting the Eurofins Discovery Web site.
(§2) The reaction is initiated by the addition of the Mg/ATP mix. After incubation for 40 min at room temperature, the reaction is stopped by the addition of phosphoric acid to a concentration of 0.5%.

EphA5(h) = EphA5(h) (Homo sapiens, UniProt P54756); experiment: biochemical
Sequence of EphA5(h) (P54756 25-1037): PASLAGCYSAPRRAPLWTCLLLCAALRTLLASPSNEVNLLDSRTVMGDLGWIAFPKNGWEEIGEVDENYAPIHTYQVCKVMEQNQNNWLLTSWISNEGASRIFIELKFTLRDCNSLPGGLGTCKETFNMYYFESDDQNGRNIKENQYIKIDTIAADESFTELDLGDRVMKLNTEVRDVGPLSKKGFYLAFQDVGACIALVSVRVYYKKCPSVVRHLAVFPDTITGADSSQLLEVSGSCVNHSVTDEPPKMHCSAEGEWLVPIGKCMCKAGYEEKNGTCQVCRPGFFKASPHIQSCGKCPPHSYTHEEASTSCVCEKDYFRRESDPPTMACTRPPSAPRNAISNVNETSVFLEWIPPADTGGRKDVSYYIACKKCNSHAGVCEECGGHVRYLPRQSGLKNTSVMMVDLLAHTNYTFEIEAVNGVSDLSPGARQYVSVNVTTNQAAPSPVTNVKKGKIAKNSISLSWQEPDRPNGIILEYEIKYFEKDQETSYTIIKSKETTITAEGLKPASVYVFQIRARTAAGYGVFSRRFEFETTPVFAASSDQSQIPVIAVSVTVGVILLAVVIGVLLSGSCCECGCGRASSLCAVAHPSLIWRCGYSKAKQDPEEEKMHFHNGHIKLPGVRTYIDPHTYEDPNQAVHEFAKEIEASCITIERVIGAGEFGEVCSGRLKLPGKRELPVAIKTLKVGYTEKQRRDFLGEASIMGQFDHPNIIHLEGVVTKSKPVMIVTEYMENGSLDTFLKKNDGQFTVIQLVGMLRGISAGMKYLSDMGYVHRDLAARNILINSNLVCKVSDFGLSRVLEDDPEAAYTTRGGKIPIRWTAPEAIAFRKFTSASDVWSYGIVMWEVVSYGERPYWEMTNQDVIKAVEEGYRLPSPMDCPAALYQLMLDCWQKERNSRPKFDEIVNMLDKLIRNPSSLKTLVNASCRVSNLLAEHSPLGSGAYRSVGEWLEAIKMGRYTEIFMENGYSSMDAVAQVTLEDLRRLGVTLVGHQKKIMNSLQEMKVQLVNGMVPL
Description: as §1, §2

EphB4(h) = EphB4(h) (Homo sapiens, UniProt P54760); experiment: biochemical
Sequence of EphB4(h) (P54760 16-987): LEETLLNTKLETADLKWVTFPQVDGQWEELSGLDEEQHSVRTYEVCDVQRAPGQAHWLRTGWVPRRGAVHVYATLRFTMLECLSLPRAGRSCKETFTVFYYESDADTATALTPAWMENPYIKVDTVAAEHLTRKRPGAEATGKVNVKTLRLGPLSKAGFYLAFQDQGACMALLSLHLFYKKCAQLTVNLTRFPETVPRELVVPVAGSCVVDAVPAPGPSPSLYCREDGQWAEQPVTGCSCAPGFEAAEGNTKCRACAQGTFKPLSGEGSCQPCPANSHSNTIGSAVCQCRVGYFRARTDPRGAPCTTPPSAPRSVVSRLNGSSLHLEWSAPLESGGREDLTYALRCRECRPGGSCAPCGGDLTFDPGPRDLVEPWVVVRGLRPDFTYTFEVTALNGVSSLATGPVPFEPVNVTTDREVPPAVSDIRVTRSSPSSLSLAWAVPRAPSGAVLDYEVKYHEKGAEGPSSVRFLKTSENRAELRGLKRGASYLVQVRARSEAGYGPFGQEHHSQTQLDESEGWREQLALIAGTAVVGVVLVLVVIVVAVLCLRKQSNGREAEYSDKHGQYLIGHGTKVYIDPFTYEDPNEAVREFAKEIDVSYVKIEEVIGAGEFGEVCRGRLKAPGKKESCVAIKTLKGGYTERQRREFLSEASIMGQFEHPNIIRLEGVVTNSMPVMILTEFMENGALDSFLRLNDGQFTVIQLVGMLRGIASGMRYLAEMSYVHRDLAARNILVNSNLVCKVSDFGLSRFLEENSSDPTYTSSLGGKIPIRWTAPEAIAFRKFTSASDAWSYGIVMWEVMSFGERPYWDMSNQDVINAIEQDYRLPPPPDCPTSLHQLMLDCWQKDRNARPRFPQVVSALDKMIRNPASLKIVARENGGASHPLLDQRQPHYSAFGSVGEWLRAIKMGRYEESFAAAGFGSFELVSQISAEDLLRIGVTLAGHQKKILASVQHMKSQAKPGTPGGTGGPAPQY
Description: as §1, §2

IKKα(h) = IKKα(h) (Homo sapiens, UniProt O15111); experiment: biochemical
Description: as §1, §2

IRAK4(h) = IRAK4(h) (Homo sapiens, UniProt Q9NWZ3); experiment: biochemical
Description: as §1, §2

JAK2(h) = JAK2(h) (Homo sapiens, UniProt O60674); experiment: biochemical
Description: as §1, §2

LOK(h) = LOK(h) (Homo sapiens, UniProt O94804); experiment: biochemical
Description: as §1, §2

MSK2(h) = MSK2(h) (Homo sapiens, UniProt O75676); experiment: biochemical
Description: as §1, §2

PDGFRβ(h) = PDGFRβ(h) (Homo sapiens, UniProt P09619); experiment: biochemical
Description: as §1, §2

PI3 Kinase (p120g)(h) = PI3 Kinase (p120g)(h) (Homo sapiens, UniProt P48736); experiment: biochemical
Description: as §1, §2

PKA(h) = PKA(h) (Homo sapiens, UniProt P17612); experiment: biochemical
Description: as §1, §2

PKBα(h) = PKBα(h) (Homo sapiens, UniProt P31749); experiment: biochemical
Sequence of PKBα(h) (P31749 whole entry): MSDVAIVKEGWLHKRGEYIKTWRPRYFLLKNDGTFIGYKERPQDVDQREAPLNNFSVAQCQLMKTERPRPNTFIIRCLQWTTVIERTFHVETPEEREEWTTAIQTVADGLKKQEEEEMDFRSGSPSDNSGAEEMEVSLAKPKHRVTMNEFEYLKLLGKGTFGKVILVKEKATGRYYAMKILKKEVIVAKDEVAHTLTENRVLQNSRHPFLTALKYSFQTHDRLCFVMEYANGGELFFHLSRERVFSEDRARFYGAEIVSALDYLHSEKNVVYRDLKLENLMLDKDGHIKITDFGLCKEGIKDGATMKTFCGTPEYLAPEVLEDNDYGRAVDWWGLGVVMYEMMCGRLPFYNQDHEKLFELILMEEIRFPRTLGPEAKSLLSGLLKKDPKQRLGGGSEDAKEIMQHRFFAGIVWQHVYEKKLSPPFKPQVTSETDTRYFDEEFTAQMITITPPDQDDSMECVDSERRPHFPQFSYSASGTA
Description: as §1, §2

PKCα(h) = PKCα(h) (Homo sapiens, UniProt P17252); experiment: biochemical
Description: as §1, §2

Pim-1(h) = Pim-1(h) (Homo sapiens, UniProt P11309); experiment: biochemical
Description: as §1, §2

ROCK-I(h) = ROCK-I(h) (Homo sapiens, UniProt Q13464); experiment: biochemical
Description: as §1, §2

Rse(h) = Rse(h) (Homo sapiens, UniProt Q06418); experiment: biochemical
Description: as §1, §2

Rsk1(h) = Rsk1(h) (Homo sapiens, UniProt Q15418); experiment: biochemical
Description: as §1, §2

TAK1(h) = TAK1(h) (Homo sapiens, UniProt O43318); experiment: biochemical
Description: as §1, §2

[1] = target: T1, PI3 Kinase (p110a/p85a)(h) (Homo sapiens, UniProt P42336); experiment: KinaseProfiler radiometric assay; type: biochemical; details: 1 µM compound
T1 construct: purchased Eurofins Discovery KinaseProfiler
Text: (§3) A representative protocol for Abl is given below.

[2] = target: T2, PI3 Kinase (p110b/p85a)(h) (Homo sapiens, UniProt P42338); experiment: KinaseProfiler radiometric assay; type: biochemical; details: 1 µM compound
T2 construct: purchased Eurofins Discovery KinaseProfiler
Text: as §3

[3] = target: T3, PI3 Kinase (p110d/p85a)(h) (Homo sapiens, UniProt O00329); experiment: KinaseProfiler radiometric assay; type: biochemical; details: 1 µM compound
T3 construct: purchased Eurofins Discovery KinaseProfiler
Text: as §3

ASK1(h) = ASK1(h) (Homo sapiens, UniProt Q99683); experiment: biochemical
Aurora-A(h) = Aurora-A(h) (Homo sapiens, UniProt O14965); experiment: biochemical
Sequence of Aurora-A(h) (O14965 whole entry): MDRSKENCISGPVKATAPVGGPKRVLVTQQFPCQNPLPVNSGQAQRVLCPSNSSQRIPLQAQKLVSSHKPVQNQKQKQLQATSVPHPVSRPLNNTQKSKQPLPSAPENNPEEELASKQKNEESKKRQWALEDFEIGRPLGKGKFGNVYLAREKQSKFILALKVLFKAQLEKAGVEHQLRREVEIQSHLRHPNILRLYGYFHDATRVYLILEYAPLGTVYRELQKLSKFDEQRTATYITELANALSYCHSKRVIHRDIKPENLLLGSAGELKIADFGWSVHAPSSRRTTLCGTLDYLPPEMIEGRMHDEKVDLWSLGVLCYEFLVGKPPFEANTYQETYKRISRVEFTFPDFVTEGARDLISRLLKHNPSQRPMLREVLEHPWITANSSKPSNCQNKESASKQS

CaMKI(h) = CaMKI(h) (Homo sapiens, UniProt Q14012); experiment: biochemical
CDK1/cyclinB(h) = CDK1/cyclinB(h) (Homo sapiens, UniProt P06493); experiment: biochemical
CDK2/cyclinA(h) = CDK2/cyclinA(h) (Homo sapiens, UniProt P24941); experiment: biochemical
CDK6/cyclinD3(h) = CDK6/cyclinD3(h) (Homo sapiens, UniProt Q00534); experiment: biochemical
CDK9/cyclin T1(h) = CDK9/cyclin T1(h) (Homo sapiens, UniProt P50750); experiment: biochemical
Sequence of CDK9/cyclin T1(h) (P50750 whole entry): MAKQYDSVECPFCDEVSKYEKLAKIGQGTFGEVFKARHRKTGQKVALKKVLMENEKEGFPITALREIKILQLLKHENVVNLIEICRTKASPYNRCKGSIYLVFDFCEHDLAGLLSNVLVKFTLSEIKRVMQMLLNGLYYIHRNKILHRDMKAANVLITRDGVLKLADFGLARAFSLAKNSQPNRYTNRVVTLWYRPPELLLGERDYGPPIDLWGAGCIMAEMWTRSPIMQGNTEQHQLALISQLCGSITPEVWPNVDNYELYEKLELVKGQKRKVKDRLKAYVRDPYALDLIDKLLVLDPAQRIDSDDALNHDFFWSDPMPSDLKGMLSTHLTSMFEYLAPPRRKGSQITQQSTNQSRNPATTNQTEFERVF
Sequence of CDK9/cyclin T1(h) (O60563 whole entry partner): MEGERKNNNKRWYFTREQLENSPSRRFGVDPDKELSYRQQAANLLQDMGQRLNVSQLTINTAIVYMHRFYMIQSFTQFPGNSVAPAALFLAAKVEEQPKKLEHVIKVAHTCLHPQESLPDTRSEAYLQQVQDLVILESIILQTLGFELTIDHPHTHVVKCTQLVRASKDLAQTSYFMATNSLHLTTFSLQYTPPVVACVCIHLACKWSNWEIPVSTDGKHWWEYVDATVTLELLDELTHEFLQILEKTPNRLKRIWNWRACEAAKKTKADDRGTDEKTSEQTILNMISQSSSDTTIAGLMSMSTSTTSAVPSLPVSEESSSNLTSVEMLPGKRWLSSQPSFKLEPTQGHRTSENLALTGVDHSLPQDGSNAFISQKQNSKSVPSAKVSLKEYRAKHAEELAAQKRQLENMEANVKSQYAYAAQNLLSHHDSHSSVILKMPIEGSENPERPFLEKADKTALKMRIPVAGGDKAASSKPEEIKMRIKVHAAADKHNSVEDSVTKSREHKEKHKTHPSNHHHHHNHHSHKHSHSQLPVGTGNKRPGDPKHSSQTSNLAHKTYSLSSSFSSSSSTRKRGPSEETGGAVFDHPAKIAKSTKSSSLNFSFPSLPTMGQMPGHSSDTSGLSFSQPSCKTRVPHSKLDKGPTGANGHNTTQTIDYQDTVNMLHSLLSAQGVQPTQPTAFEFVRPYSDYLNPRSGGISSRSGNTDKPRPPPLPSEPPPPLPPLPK

CHK1(h) = CHK1(h) (Homo sapiens, UniProt O14757); experiment: biochemical
CK1γ1(h) = CK1γ1(h) (Homo sapiens, UniProt Q9HCP0); experiment: biochemical
Sequence of CK1γ1(h) (Q9HCP0 whole entry): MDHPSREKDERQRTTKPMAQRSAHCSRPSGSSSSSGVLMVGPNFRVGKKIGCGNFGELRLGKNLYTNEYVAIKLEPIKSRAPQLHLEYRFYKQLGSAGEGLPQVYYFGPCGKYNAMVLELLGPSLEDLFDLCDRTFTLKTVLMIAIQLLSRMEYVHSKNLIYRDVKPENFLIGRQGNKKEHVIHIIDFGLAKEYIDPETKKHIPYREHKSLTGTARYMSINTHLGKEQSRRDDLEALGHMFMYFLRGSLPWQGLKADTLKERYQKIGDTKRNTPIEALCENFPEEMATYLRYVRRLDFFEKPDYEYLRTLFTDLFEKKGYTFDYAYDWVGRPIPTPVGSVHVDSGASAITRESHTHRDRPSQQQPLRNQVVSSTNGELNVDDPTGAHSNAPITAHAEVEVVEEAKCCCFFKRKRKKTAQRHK

c-RAF(h) = c-RAF(h) (Homo sapiens, UniProt P04049); experiment: biochemical
DRAK1(h) = DRAK1(h) (Homo sapiens, UniProt Q9UEE5); experiment: biochemical
Sequence of DRAK1(h) (Q9UEE5 whole entry): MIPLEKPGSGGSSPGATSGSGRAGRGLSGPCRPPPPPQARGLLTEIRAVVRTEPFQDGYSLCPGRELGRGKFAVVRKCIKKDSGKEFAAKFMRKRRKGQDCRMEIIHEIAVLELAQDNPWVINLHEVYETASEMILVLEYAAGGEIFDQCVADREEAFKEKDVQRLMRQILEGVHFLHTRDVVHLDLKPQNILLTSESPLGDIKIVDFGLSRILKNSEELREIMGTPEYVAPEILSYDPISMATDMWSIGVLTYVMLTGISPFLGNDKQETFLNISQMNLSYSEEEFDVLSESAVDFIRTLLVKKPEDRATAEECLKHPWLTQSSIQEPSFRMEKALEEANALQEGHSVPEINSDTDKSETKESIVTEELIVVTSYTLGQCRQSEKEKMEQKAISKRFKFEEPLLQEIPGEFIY

CCN(CC)Cc1ccc(OC)c(-c2cc3c(-c4ccc(C(=O)O)c(C(C)C)c4)ccnc3[nH]2)c1 [Compound 1, TCMDC-135051]
Tm B (full-length PfCLK3): 66.66 and 66.67 and 66.65 | microsomal CLint at 1 μM (Microsomal stability; read-out: HLM CLint (intrinsic clearance)): < 7.5 µL/min/mg | half-life at 1 μM (Microsomal stability; read-out: HLM t1/2): > 3.07 h | remaining activity at 1 µM (EGFR(h)): 95% | remaining activity at 1 µM (EphA5(h)): 97% | remaining activity at 1 µM (EphB4(h)): 104% | remaining activity at 1 µM (IKKα(h)): 93% | remaining activity at 1 µM (IRAK4(h)): 27% | remaining activity at 1 µM (JAK2(h)): 20% | remaining activity at 1 µM (LOK(h)): 37% | remaining activity at 1 µM (MSK2(h)): 100% | remaining activity at 1 µM (PDGFRβ(h)): 94% | remaining activity at 1 µM (PI3 Kinase (p120g)(h)): 96% | remaining activity at 1 µM (PKA(h)): 101% | remaining activity at 1 µM (PKBα(h)): 106% | remaining activity at 1 µM (PKCα(h)): 73% | remaining activity at 1 µM (Pim-1(h)): 101% | remaining activity at 1 µM (ROCK-I(h)): 117% | remaining activity at 1 µM (Rse(h)): 109% | remaining activity at 1 µM (Rsk1(h)): 105% | remaining activity at 1 µM (TAK1(h)): 45% | remaining activity at 1 µM [1]: 100% | remaining activity at 1 µM [2]: 99% | remaining activity at 1 µM [3]: 73% | remaining activity at 1 µM (ASK1(h)): 92% | remaining activity at 1 µM (Aurora-A(h)): 11% | remaining activity at 1 µM (CaMKI(h)): 100% | remaining activity at 1 µM (CDK1/cyclinB(h)): 15% | remaining activity at 1 µM (CDK2/cyclinA(h)): 30% | remaining activity at 1 µM (CDK6/cyclinD3(h)): 82% | remaining activity at 1 µM (CDK9/cyclin T1(h)): 6% | remaining activity at 1 µM (CHK1(h)): 101% | remaining activity at 1 µM (CK1γ1(h)): 85% | remaining activity at 1 µM (c-RAF(h)): 106% | remaining activity at 1 µM (DRAK1(h)): 83%
